Patent US12269800B2, “Delivery of therapeutic alkaloid compounds” (priority 2021, dated 2025)
Like-named read-outs stand apart in the source and are kept apart here. Each block holds one compound with its values, some of them ahead of it.

Legend:
[1] = Plasma Stability Assay of Example A3, human plasma; settings: % of prodrug compound remaining, 37° C., 0.0 min
[2] = Plasma Stability Assay of Example A3, mouse plasma; settings: % of prodrug compound remaining, 37° C.
[3] = Hydrolysis Assay of Example A2, Condition 1 (SGF with pepsin, pH 1.5, 37° C.); format: physicochemical
[4] = format: physicochemical; settings: DI water, 25° C., 0.5 mM
[5] = Pharmacokinetics of 043 and 001 in mice after oral 043 (75 mg/kg); format: in vivo, male C57BL/6 mice
Description: Total twelve male mice were used in this study. […] The formulation vehicle used was normal saline.
The plasma and brain concentration-time data of 043 and 001 was used for the pharmacokinetic analysis.
The extraction procedure for plasma/brain samples and the spiked plasma/brain calibration standards were identical:
A 25 μL of study sample plasma/brain (dilution applied to some samples) or spiked plasma calibration standard was added to individual pre-labeled micro-centrifuge tubes followed by 100 μL of internal standard prepared in acetonitrile (Glipizide-500 ng/mL) was added except for blank, where 100 μL of acetonitrile was added. Samples were vortexed for 5 minutes. Samples were centrifuged for 10 minutes at a speed of 4000 rpm at 4° C. Following centrifugation, 100 μL of clear supernatant was transferred in 96 well plates and analyzed using LC-MS/MS.

[6] = Description: General Procedure for intravenous pharmacokinetic study in mice: Male C57/BL6 mice were used to evaluate each compound, with n=3 mice/time point. Animals were administered through intravenous route with solution formulation at 2 mg/kg dose. […] Following blood collection, immediately, animals were sacrificed, and vena-cava was cut open and blood was drained. […] Brain samples were collected from set of three mice at each time point. […] Brain samples were homogenized using 2 volumes of ice-cold PBS (pH-7.4) of brain weight. […] Concentrations of compound (or compound and metabolite) in mouse plasma and brain samples were determined by fit for purpose LC-MS/MS method.
[7] = format: physicochemical
Description: The hydrolysis kinetics was under a certain temperature and measured by LCMS at a certain time interval. The corresponding LCMS chromatograms were recorded and the conversions were calculated. The hydrolysis conditions and the data were summarized in below table. LCMS spectra were obtained using Agilent 1200G1956A or SHIMADZU LCMS-2020. Standard LCMS conditions were as follows (running time 1.55 minutes):
Acidic condition: Mobile Phase A: 0.0375% TFA in water (v/v). Mobile Phase B: 0.01875% TFA in acetonitrile (v/v); Column: Kinetex EVO C18 30*2.1 mm, 5 μm.
Basic condition: Mobile Phase A: 0.025% NH3—H2O in water (v/v). Mobile Phase B: Acetonitrile; Column: Kinetex EVO C18 2.1×30 mm, 5 μm.
Conversion (%)=peak area 1/(peak area 1+peak area 2)*100%, peak area 1 is the integration of hydrolyzed product, peak area 2 is the integration of starting material.

[8] = Oral dose pharmacokinetic study in mice (10 mg/kg)
Description: Total thirty-five male mice were used for each study with n=5 mice/time point. Animals were administered through oral route with solution formulation at 10 mg/kg dose. The formulation vehicle used was normal saline. […] Brain samples were collected from set of five mice at 0.083, 0.25, 0.50, 1.0, 1.5, 2.0 and 3.0 h.
The plasma and brain concentration-time data of 001 was used for the pharmacokinetic analysis.

Remark: listed apart in the source
[9] = fermentation, exposure to light, exposure to heat, aqueous medium; cited from earlier work
[10] = Plasma Stability Assay of Example A4, human plasma; settings: 37° C., % prodrug remaining
[11] = Plasma Stability Assay of Example A4, rat plasma; settings: 37° C., % prodrug remaining
[12] = 5 µM
[13] = analyte as labelled, single oral administration of 043, 75 mg/kg
[14] = brain, analyte as labelled, single oral administration of 043, 75 mg/kg
[15] = plasma, analyte as labelled, single oral administration of 043, 75 mg/kg
[16] = pH = 2.0, 25° C., 0.5 mM, 0.01M HCl, 0-24 h
[17] = 10 mg/kg po of the labelled compound in mice

Compound: COc1ccc([C@@]23CCC(OC(=O)c4ccc(C(F)(F)F)cc4)=C[C@@H]2N(C)CC3)cc1OC [Compound 310]
Human Plasma Prodrug (%) [1]: 100.0%
Mouse Plasma Prodrug (%) ([2]; 0.0 min): 100.0%
Mouse Plasma Prodrug (%) ([2]; 15 min): 0.4%
Mouse Plasma Prodrug (%) ([2]; 30 min): 0.1%
Mouse Plasma Prodrug (%) ([2]; 60 min): 0.1%
Mouse Plasma Prodrug (%) ([2]; 120 min): 0.1%
Mouse Plasma Prodrug (%) ([2]; 240 min): 0.1%
Condition 1 Conversion (%) ([3]; SGF with pepsin pH 1.5, 37° C., 0.5 mM, time 1 min): 0%
Condition 1 Conversion (%) ([3]; SGF with pepsin pH 1.5, 37° C., 0.5 mM, time 5 min): 0%
Condition 1 Conversion (%) ([3]; SGF with pepsin pH 1.5, 37° C., 0.5 mM, time 30 min): 0%
Condition 1 Conversion (%) ([3]; SGF with pepsin pH 1.5, 37° C., 0.5 mM, time 1 h): 0%
Condition 1 Conversion (%) ([3]; SGF with pepsin pH 1.5, 37° C., 0.5 mM, time 4 h): 0%
Condition 1 Conversion (%) ([3]; SGF with pepsin pH 1.5, 37° C., 0.5 mM, time 24 h): 0%
Condition 2 Conversion (%) ([4]; time 1 min): 0%
Condition 2 Conversion (%) ([4]; time 5 min): 0%
Condition 2 Conversion (%) ([4]; time 30 min): 0%
Condition 2 Conversion (%) ([4]; time 1 h): 0%
Condition 2 Conversion (%) ([4]; time 4 h): 0%
Condition 2 Conversion (%) ([4]; time 24 h): 0%

Compound: COc1ccc([C@]23CCN(C)[C@H]2CC2(CC3)OCCO2)cc1OC [Compound 043]
conversion to 001 in vivo ([5]; 75 mg/kg po in mice): efficiently converts to 001 in vivo
brain concentrations quantifiable up to [5, 13]: 4 h
brain exposure-Kp [5, 13]: < 1
AUClast [5, 14]: 1787.23 ng·h/mL
Cmax [5, 14]: 2684.81 ng/mL
Tmax [5, 14]: 30 min
AUClast [5, 15]: 2555.07 ng·h/mL
Cmax [5, 15]: 3392.53 ng/mL
Tmax [5, 15]: 30 min

Compound: CCC(=O)OC1=C[C@@H]2N(C)CC[C@]2(c2ccc(OC)c(OC)c2)CC1 [Compound 317, [(3aS,7aS)-3a-(3,4-dimethoxyphenyl)-1-methyl-3,4,5,7a-tetrahydro-2H-indol-6-yl] propanoate]
conversion to 001 in vivo ([6]; 2 mg/kg iv in mice): converts to 001 in vivo
001 quantifiable in plasma up to ([6]; male, C57BL/6, mouse, in vivo): 60 min
plasma levels of 001 ([6]; mouse, in vivo, iv, 2 mg/kg): not detectable

Compound: COc1ccc([C@]23CCN(C)[C@H]2CC2(CC3)SCCS2)cc1OC (racemic) [Compound 014, (7′aS)-3′a-(3,4-dimethoxyphenyl)-1′-methyl-spiro[1,3-dithiolane-2,6′-2,3,4,5,7,7a-hexahydroindole]]
Notes (stability in words) [7, 16]: Stable

Compound: COc1ccc([C@]23CCN(C)[C@H]2CC2(CC3)OCCO2)cc1OC (racemic) [Compound 013, 3′a-(3,4-dimethoxyphenyl)-1′-methyl-spiro[1,3-dioxolane-2,6′-2,3,4,5,7,7a-hexahydroindole]]
Notes (stability in words) [7]: Stable
conversion to mesembrine ([7]; acidic pH 2.0, 5° C.): not at 5 °C
conversion to mesembrine ([7]; acidic pH 2.0, 37 and 50° C.): converted to mesembrine

Compound: COc1ccc([C@@]23CCC(=O)C[C@@H]2N(C)CC3)cc1OC [Compound 001, mesembrine, reference compound]
Human Plasma Prodrug (%) [1]: 100.0%
Mouse Plasma Prodrug (%) ([2]; 0.0 min): 100.0%
001 quantifiable in brain up to ([6]; 2 mg/kg iv of the labelled compound in mice): 60 min
plasma levels of 001 ([6]; at 60, 120, 180 min, 2 mg/kg iv in mice): not detectable
brain levels of 001 ([6]; at 120, 180 min, 2 mg/kg iv in mice): not detectable
001 quantifiable in brain up to [8, 17]: 60 min
001 quantifiable in plasma up to [8, 17]: 2 h
brain levels of 001 ([8]; at 90, 120, 180 min, 10 mg/kg po in mice): not detectable
plasma levels of 001 ([8]; at 180 min, 10 mg/kg po in mice): not detectable
bioavailability ([8]; male, C57BL/6, mouse, plasma, po, 10 mg/kg): < 10%
Human Plasma Prodrug (%): >99%
Notes (stability in words) ([7]; PH = 7.4, 25° C., 0.5 mM, PBS (20 mM), 0-24 h): Stable
Notes (stability in words) ([7]; PH = 7.4, 40° C., 0.5 mM, PBS (20 mM), 0-24 h): Stable
hydrolysis ([7]; pH 2.0 in 0.01 M HCl to pH 7.4 in 20 mM PBS, 25° C. to 40° C.): did not further hydrolyze
Notes (stability in words) [7, 16]: Stable
Notes (stability in words) ([7]; pH = 2.0, 40° C., 0.5 mM, 0.01M HCl, 0-24 h): Stable
brain concentrations quantifiable up to [5, 13]: 4 h
Kp ([5]; male, C57BL/6, mouse, brain, analyte as labelled, single oral administration of 043, 75 mg/kg, read-out: brain exposure-Kp): 2.55
Tmax ([5]; male, C57BL/6, mouse, plasma, analyte as labelled, single oral administration of 043, 75 mg/kg, read-out: Tmax): 30 min

Compound: COc1ccc([C@@]23CCC(=O)C[C@@H]2N(C)CC3)cc1OC [mesembrine]
stability [9]: unstable

Compound: COc1ccc([C@@]23CCC(OC(C)=O)=C[C@@H]2N(C)CC3)cc1OC [Compound 026, [(3aS,7aS)-3a-(3,4-dimethoxyphenyl)-1-methyl-3,4,5,7a-tetrahydro-2H-indol-6-yl] acetate]
Human Plasma Prodrug (%) ([10]; time 0.0 min): 100.0%
Human Plasma Prodrug (%) ([10]; time 10 min): 40.3%
Human Plasma Prodrug (%) ([10]; time 30 min): 23.5%
Human Plasma Prodrug (%) ([10]; time 60 min): 12.0%
Human Plasma Prodrug (%) ([10]; time 120 min): 3.4%
Human Plasma Prodrug (%) ([10]; time 240 min): 0.8%
Condition 1 Conversion (%) ([3]; pH 1.5): 0%
Rat Plasma Prodrug (%) ([11]; time 0.0 min): 100.0%
Rat Plasma Prodrug (%) ([11]; time 10 min): 0.0%
Rat Plasma Prodrug (%) ([11]; time 30 min): 0.0%
Rat Plasma Prodrug (%) ([11]; time 60 min): 0.0%
Rat Plasma Prodrug (%) ([11]; time 120 min): 0.0%
Rat Plasma Prodrug (%) ([11]; time 240 min): 0.0%
Conversion (%) [7]: 0%
Notes (stability in words) [7]: Stable;

Compound: COc1ccc([C@@]23CCC(OC(=O)CC(C)C)=C[C@@H]2N(C)CC3)cc1OC [Compound 334, [(3aS,7aS)-3a-(3,4-dimethoxyphenyl)-1-methyl-3,4,5,7a-tetrahydro-2H-indol-6-yl] 3-methylbutanoate]
conversion to 001 in vivo ([6]; 2 mg/kg iv in mice): converts to 001 in vivo
001 quantifiable in brain up to ([6]; male, C57BL/6, mouse, in vivo): 120 min
001 quantifiable in plasma up to ([6]; male, C57BL/6, mouse, in vivo): 60 min
plasma levels of 001 ([6]; mouse, in vivo, iv, 2 mg/kg): not detectable

Mouse Plasma Prodrug (%) ([12]; 0 min): 100%
Mouse Plasma Prodrug (%) ([12]; 15 min): 86.2%
Mouse Plasma Prodrug (%) ([12]; 30 min): 81.0%
Mouse Plasma Prodrug (%) ([12]; 60 min): 67.6%
Mouse Plasma Prodrug (%) ([12]; 120 min): 38.7%
Mouse Plasma Prodrug (%) ([12]; 240 min): 19.8%
Human Plasma Prodrug (%) (0 min, 5 µM): 100%
Human Plasma Prodrug (%) (15 min, 5 µM): >99%
Human Plasma Prodrug (%) (30 min, 5 µM): 96.6%
Human Plasma Prodrug (%) (60 min, 5 µM): 85.7%
Human Plasma Prodrug (%) (120 min, 5 µM): 70.0%
Human Plasma Prodrug (%) (240 min, 5 µM): 54.3%
Compound: COc1ccc([C@@]23CCC(=NNC(=O)Nc4ccc(C(=O)O)cc4)C[C@@H]2N(C)CC3)cc1OC (racemic) [Compound 259, 4-[[[(3aS,7aS)-3a-(3,4-dimethoxyphenyl)-1-methyl-2,3,4,5,7,7a-hexahydroindol-6-ylidene]amino]carbamoylamino]benzoic acid]
